# Source: patent publication US20260070945A1, “MACROCYCLIC IMMUNOMODULATORS” (Bristol-Myers Squibb Company, priority 2022, published 2026)
# *1 amine or outer side, *2 acyl side, *3 side chain or, on linkers, in order; H or OH if unused. Where a SMILES comes first, the peptide text is derived from it. Bridges are numbered along the chain shown (N, C = ends). [ ]: non-standard residue; d: D form. The star is where a group is joined. ξ: configuration not given here. Phe(3-CF3) = N[C@@H](Cc1cccc(C(F)(F)F)c1)C(=O)O; Ala(morpholin-4-yl) = N[C@@H](CN1CCOCC1)C(=O)O; Phe(4-CONH2) = NC(=O)c1ccc(C[C@H](N)C(=O)O)cc1; Phe(4-COOH) = N[C@@H](Cc1ccc(C(=O)O)cc1)C(=O)O; Bip = N[C@@H](Cc1ccc(-c2ccccc2)cc1)C(=O)O; Phe(3-Me) = Cc1cccc(C[C@H](N)C(=O)O)c1; γGlu = O=C(O)[C@H](CCC(=O)[*:2])N[*:1]; NH(CH2)12COOH = O=C(O)CCCCCCCCCCCCN*; Val(3-OH) = CC(C)(O)[C@H](N)C(=O)O; X6 = O=C(Cc1ccc(CN[*:1])cc1)[*:2]; 4Pal = N[C@@H](Cc1ccncc1)C(=O)O; Cha = N[C@@H](CC1CCCCC1)C(=O)O; Cit = NC(=O)NCCC[C@H](N)C(=O)O; Ile(3ξ) = CCC(C)[C@H](N)C(=O)O; Thr(3ξ) = CC(O)[C@H](N)C(=O)O; Carboxymethyl = O=C(O)C*; NMeA = CN[C@@H](C)C(=O)O; Orn = NCCC[C@H](N)C(=O)O; Aun = NCCCCCCCCCCC(=O)O; Dab = NCC[C@H](N)C(=O)O; Dap = NC[C@H](N)C(=O)O; AEEA = NCCOCCOCC(=O)O
# Molecular target: T1, PD-1/PD-L1 interaction (PE-labeled human PD-L1-Ig binding to Jurkat cell line over-expressing human PD-1) (Homo sapiens, UniProt Q15116)
# T1 construct: expressed in transfected cells; host or cells: Jurkat
# T1 sequence (Q15116 25-288): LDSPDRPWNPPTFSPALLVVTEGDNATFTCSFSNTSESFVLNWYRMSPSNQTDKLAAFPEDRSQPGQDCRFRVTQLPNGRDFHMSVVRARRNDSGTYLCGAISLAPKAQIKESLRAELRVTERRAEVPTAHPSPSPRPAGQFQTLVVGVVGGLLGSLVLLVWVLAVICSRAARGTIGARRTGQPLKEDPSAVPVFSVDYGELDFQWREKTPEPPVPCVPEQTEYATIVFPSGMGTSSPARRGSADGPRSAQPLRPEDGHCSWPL
# Assay: Jurkat-PD-1 Cell Binding High-Content Screening Assay (CBA)
# Details: Jurkat-hPD-1 cells, PE-labeled PD-L1-Ig 20 nM final; read-out: Jurkat HPD1 PDL1 IC50
# Method in brief: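 Jurkat-hPD-1 cells (8×10^3/well) in DMEM with 10% fetal calf serum were preincubated with compound for 2 h at 37 °C. PE-labeled PD-L1-Ig was then added at 20 nM final for 1 h. Cells were fixed in paraformaldehyde with Hoechst 33342, washed and imaged by high-content imaging.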
row,IC50,Compound
1,0.028 µM,CC(C)C[C@@H]1NC(=O)[C@H](Cc2c[nH]c3ccccc23)NC(=O)[C@H](CC(=O)O)NC(=O)[C@H](Cc2ccc(C(=O)O)cc2)NC(=O)[C@H](Cc2ccc(OCC(=O)O)cc2)NC(=O)CSC[C@@H](C(=O)N[C@@H](CCCN)C(=O)NCc2ccc(CC(=O)NCCCCCCCCCCC(=O)O)cc2)NC(=O)[C@H](CO)NC(=O)[C@H](C(C)C)NC(=O)[C@H](CC2CCCCC2)NC(=O)[C@H](CCN)NC(=O)[C@@H](CC(C)C)NC(=O)[C@H](C)N(C)C(=O)[C@H](C(C)C)NC(=O)[C@H](Cc2ccc(-c3ccccc3)cc2)NC1=O [Example 1243] ({CH2CO}-Y(Carboxymethyl)[Phe(4-COOH)]DWL[Bip]V[NMeA][dL][Dab][Cha]VSC[Orn][X6][Aun]-OH; thioether N-14)
2,0.0146 µM,CC(C)C[C@@H]1NC(=O)[C@H](Cc2c[nH]c3ccccc23)NC(=O)[C@H](CC(=O)O)NC(=O)[C@H](Cc2ccc(C(=O)O)cc2)NC(=O)[C@H](Cc2ccc(OCC(=O)O)cc2)NC(=O)CSC[C@@H](C(=O)NCCOCCOCC(=O)NCCCCCCCCCCC(=O)O)NC(=O)[C@H](CN)NC(=O)[C@H](C(C)C)NC(=O)[C@H](CC2CCCCC2)NC(=O)[C@H](CCN)NC(=O)[C@@H](CC(C)C)NC(=O)[C@H](C)N(C)C(=O)[C@H](C(C)C)NC(=O)[C@H](Cc2ccc(-c3ccccc3)cc2)NC1=O [Example 1093] ({CH2CO}-Y(Carboxymethyl)[Phe(4-COOH)]DWL[Bip]V[NMeA][dL][Dab][Cha]V[Dap]C[AEEA][Aun]-OH; thioether N-14)
3,0.0177 µM,CCC(C)[C@@H]1NC(=O)[C@H](Cc2ccc(-c3ccccc3)cc2)NC(=O)[C@H](C(C)C)NC(=O)[C@H](Cc2c[nH]c3ccccc23)NC(=O)[C@H](CC(=O)O)NC(=O)[C@H](Cc2ccc(C(=O)O)cc2)NC(=O)[C@H](Cc2ccc(OCC(=O)O)cc2)NC(=O)CSC[C@@H](C(=O)N[C@@H](CCCN)C(=O)NCCOCCOCC(=O)NCCCCCCCCCCC(=O)O)NC(=O)[C@H](C(C)O)NC(=O)[C@H](C(C)C)NC(=O)[C@H](CC2CCCCC2)NC(=O)[C@H](CCN)NC(=O)[C@@H](CC(C)C)NC(=O)[C@H](C)N(C)C1=O (stereo partly drawn) [Example 2149] ({CH2CO}-Y(Carboxymethyl)[Phe(4-COOH)]DWV[Bip][Ile(3ξ)][NMeA][dL][Dab][Cha]V[Thr(3ξ)]C[Orn][AEEA][Aun]-OH; thioether N-14)
4,0.0156 µM,CC(C)C[C@H]1NC(=O)[C@H](C)N(C)C(=O)[C@H](CCCNC(N)=O)NC(=O)[C@H](Cc2ccc(-c3ccccc3)cc2)NC(=O)[C@H](Cc2ccc(C(=O)O)cc2)NC(=O)[C@H](Cc2cccc(C(F)(F)F)c2)NC(=O)[C@H](CC(=O)O)NC(=O)[C@H](Cc2ccc(OCC(=O)O)cc2)NC(=O)[C@H](CN2CCOCC2)NC(=O)CSC[C@@H](C(=O)N[C@@H](CCN)C(=O)NCCOCCOCC(=O)N[C@@H](CCC(=O)NCCOCCOCC(=O)NCCCCCCCCCCCCC(=O)O)C(=O)O)NC(=O)[C@H](CCC(=O)O)NC(=O)[C@H](C(C)C)NC(=O)[C@H](CC2CCCCC2)NC(=O)[C@H](CCN)NC1=O [Example 1176] ({CH2CO}-[Ala(morpholin-4-yl)]Y(Carboxymethyl)D[Phe(3-CF3)][Phe(4-COOH)][Bip][Cit][NMeA][dL][Dab][Cha]VEC[Dab][AEEA][γGlu][AEEA]-{NH(CH2)12COOH}; thioether N-14)
5,0.0254 µM,CCC(C)[C@@H]1NC(=O)[C@H](Cc2ccc(-c3ccccc3)cc2)NC(=O)[C@H](CC(C)C)NC(=O)[C@H](Cc2c[nH]c3ccccc23)NC(=O)[C@H](CC(=O)O)NC(=O)[C@H](Cc2ccc(O)cc2)NC(=O)[C@H](CC(N)=O)NC(=O)CSC[C@@H](C(=O)N[C@@H](C)C(=O)NCCOCCOCC(=O)NCCCCCCCCCCC(=O)O)NC(=O)[C@H](CO)NC(=O)[C@H](C(C)C)NC(=O)[C@H](CC2CCCCC2)NC(=O)[C@H](CCN)NC(=O)[C@@H](CC(C)C)NC(=O)[C@H](C)N(C)C1=O (stereo partly drawn) [Example 2072] ({CH2CO}-NYDWL[Bip][Ile(3ξ)][NMeA][dL][Dab][Cha]VSCA[AEEA][Aun]-OH; thioether N-14)
6,0.0412 µM,CC(C)C[C@H]1NC(=O)[C@H](C)N(C)C(=O)[C@H](CCC(N)=O)NC(=O)[C@H](Cc2ccc(-c3ccccc3)cc2)NC(=O)[C@H](Cc2ccc(C(=O)O)cc2)NC(=O)[C@H](Cc2cccc(C(F)(F)F)c2)NC(=O)[C@H](CC(=O)O)NC(=O)[C@H](Cc2ccc(OCC(=O)O)cc2)NC(=O)[C@H](CN2CCOCC2)NC(=O)CSC[C@@H](C(=O)N[C@@H](CCN)C(=O)NCCOCCOCC(=O)N[C@@H](CCC(=O)NCCOCCOCC(=O)NCCCCCCCCCCCCC(=O)O)C(=O)O)NC(=O)[C@H](CC(=O)O)NC(=O)[C@H](C(C)(C)O)NC(=O)[C@H](CC2CCCCC2)NC(=O)[C@H](CCN)NC1=O [Example 1171] ({CH2CO}-[Ala(morpholin-4-yl)]Y(Carboxymethyl)D[Phe(3-CF3)][Phe(4-COOH)][Bip]Q[NMeA][dL][Dab][Cha][Val(3-OH)]DC[Dab][AEEA][γGlu][AEEA]-{NH(CH2)12COOH}; thioether N-14)

# Same assay, conditions: PE-labeled PD-L1-Ig 20 nM final, Jurkat-hPD-1 cells; read-out: Jurkat HPD1 PDL1 IC50
row,IC50,Compound
1,0.0362 µM,Cc1cccc(C[C@@H]2NC(=O)[C@H](CC(=O)O)NC(=O)[C@H](Cc3ccc(C(=O)O)cc3)NC(=O)[C@H](Cc3ccncc3)NC(=O)CSC[C@@H](C(=O)N[C@@H](CCCN)C(=O)NCCOCCOCC(=O)NCCCCCCCCCCC(=O)O)NC(=O)[C@H](CCC(=O)O)NC(=O)[C@H](C(C)(C)O)NC(=O)[C@H](CC3CCCCC3)NC(=O)[C@H](Cc3cnc[nH]3)NC(=O)[C@@H](CC(C)C)NC(=O)[C@H](C)N(C)C(=O)[C@H](Cc3ccc(C(=O)O)cc3)NC(=O)[C@H](Cc3ccc(-c4ccccc4)cc3)NC(=O)[C@H](Cc3ccc(C(=O)O)cc3)NC2=O)c1 [Example 2498] ({CH2CO}-[4Pal][Phe(4-COOH)]D[Phe(3-Me)][Phe(4-COOH)][Bip][Phe(4-COOH)][NMeA][dL]H[Cha][Val(3-OH)]EC[Orn][AEEA][Aun]-OH; thioether N-14)
2,0.0017 µM,CC(=O)NCCCC[C@@H]1NC(=O)[C@H](C(C)O)NC(=O)[C@H](CC2CCCCC2)NC(=O)[C@H](CCN)NC(=O)[C@@H](CC(C)C)NC(=O)[C@H](C)N(C)C(=O)[C@H](CCC(=O)O)NC(=O)[C@H](Cc2ccc(-c3ccccc3)cc2)NC(=O)[C@H](Cc2ccc(C(N)=O)cc2)NC(=O)[C@H](Cc2cccc(C)c2)NC(=O)[C@H](CC(=O)O)NC(=O)[C@H](Cc2ccc(C(=O)O)cc2)NC(=O)[C@H](Cc2ccc(OCC(=O)O)cc2)NC(=O)CSC[C@@H](C(=O)N[C@@H](CCN)C(=O)NCCOCCOCC(=O)NCCCCCCCCCCC(=O)O)NC1=O (stereo partly drawn) [Example 2534] ({CH2CO}-Y(Carboxymethyl)[Phe(4-COOH)]D[Phe(3-Me)][Phe(4-CONH2)][Bip]E[NMeA][dL][Dab][Cha][Thr(3ξ)]K(Ac)C[Dab][AEEA][Aun]-OH; thioether N-14)
3,0.114 µM,CC(C)C[C@H]1NC(=O)[C@H](C)N(C)C(=O)[C@H](CCCNC(=N)N)NC(=O)[C@H](Cc2ccc(-c3ccccc3)cc2)NC(=O)[C@H](Cc2ccc(C(=O)O)cc2)NC(=O)[C@H](Cc2cccc(C(F)(F)F)c2)NC(=O)[C@H](CC(=O)O)NC(=O)[C@H](Cc2ccc(OCC(=O)O)cc2)NC(=O)[C@H](C(C)O)NC(=O)CSC[C@@H](C(=O)N[C@H](CC(N)=O)C(=O)NCCCCCCCCCCCCC(=O)O)NC(=O)[C@H](CO)NC(=O)[C@H](C(C)(C)O)NC(=O)[C@H](CC2CCCCC2)NC(=O)[C@H](CCN)NC1=O (stereo partly drawn) [Example 2645] ({CH2CO}-[Thr(3ξ)]Y(Carboxymethyl)D[Phe(3-CF3)][Phe(4-COOH)][Bip]R[NMeA][dL][Dab][Cha][Val(3-OH)]SC[dN]-{NH(CH2)12COOH}; thioether N-14)
